Results on two compounds are retold here after patent US6376175B1, “Methods of discovering chemicals capable of functioning as gene expression modulators” (OSI Pharmaceuticals, Inc., priority 1989, dated 2002).

One assay relates to G-CSF promoter. Nature of the assay: G-CSF promoter-luciferase induction by known inducers, clone G 1002 (5637 cells). Format: cell-based, human. The text has this: Cloning of G-CSF sequences is described in Experimental Details, section B-3. In order to correctly fuse the G-CSF upstream sequences to the luciferase start codon, oligonucleotides were synthesized which contain the G-CSF leader sequence from +15 to the ATG (32), and were cloned into pUC19 to create pGUC84 (FIG. 29). […] The G-CSF-oligonucleotide-containing NcoI/ScaI fragment from pGUC84 was then isolated and ligated to the luciferase-containing NcoI/ScaI fragment from pUV100 to create pGUV100 (FIG. 30). Following this, the PstI fragment of the G-CSF promoter was isolated form pJM710 (FIG. 7) and inserted into the PstI site in pGUV100 generating pGUV1(FIG. 31). The rest of the G-CSF promoter clone was added by ligating the G-CSF-luciferase containing SfiI/ScaI fragment from pGUV1 to the appropriate SfiI/ScaI fragment from pJM710, creating the plasmid pGUV2 (FIG. 32). The XbaI fragment from pGUV2 containing the G-CSF-luciferase fusion was then cloned into pUV103 previously digested with XbaI/SpeI, generating pGUV140 (FIG. 33). Finally, a TK-Neo cassette (Section C) was included by ligating the ScaI/XbaI fragment from pGUV140 which contains the G-CSF-luciferase fusion into pTKNEO103 previously digested with ScaI/XbaI, yielding the final vector pGUV150 (FIG. 34).
All the following constructs were transfected into 5637 bladder carcinoma cells either by electroporation using a BRL (Gaithersburg, Md.) Cellporator electroporation device or by lipofection using BRL lipofectin and following the manufacturer's protocol. For electroporation, cells were trypsinized, treated with Soybean trypsin inhibitor (1 mg/ml), washed three times in Dulbecco's modified Eagle's medium (DMEM) without pH indicator, and 1 ml of cell suspension in DMEM was electroporated at room temperature and at a cell density of 5 million cells per ml at a voltage of 250 V and a capacitance of 1180 microFarad with the electroporation device set at low resistance. In previous experiments these parameters had been determined to result in optimal electroporation efficiency. About 15 min after electroporation cells were recovered from the disposable electroporation containers (BRL, Gaithersburg, Md.) and plated in RPMI containing 10% fetal calf serum. 2 days after electroporation 0.4 mg/ml G 418 were added and clonal cell colonies were picked 14-20 days after transfection. Clones were first analysed for luciferase expression using Lysis Buffer 1 without bovine serum albumin (see Section F) and those testing positive expanded further and frozen in liquid nitrogen. Further analysis of 6 clones (G 1002, G 2005, G 2071, G 2085, G 3014, G3031) included Southern blotting, reaction to known inducers, satisfactory attachment to microtiter plates and acceptable standard deviation in multiple luciferase expression assays. Clones G 2005 and G 2085 were derived from 5637 cells lipofected with 100 ug/ml of linearized pGVU150 (FIG. 34), G 3031 descends from cells electroporated with 100 ug/ml of linearized pGVU150, whereas 200 ug/ml of the same plasmid were used to generate G 3014. Cotransfection of circular pGVU140 (FIG. 33) with circular pTKNeo3 (FIG. 19) was used to generate clones G 1002 and G 2071. While G 1002 resulted from co-electroporation of 50 and 5 ug/ml of the two plasmids, G 2071 descends from cells lipofected with 100 and 10 ug.
Cell clones with correctly integrated promoter/reporter constructs were analysed for correct reaction to known transcriptional inducers. […] Both TNF-alpha- and PMA-induction levels of clone G 1002 were influenced by the presence or absence of epidermal growth factor (EGF). […] The 9.3fold induction by PMA in the absence of EGF was reduced to 5.6fold by including EGF in the serum-free incubation mixture. Similar differences were observed, when EGF was substituted by 10% fetal calf serum.

A further assay deals with secreted G-CSF protein. Nature of the assay: Two-antibody sandwich immunoassay of G-CSF secreted by 5637 bladder carcinoma cells. It counts as cell-based, human. The following applies: 5637 cells, 48 hours, serum-containing media; TNF-alpha 5 ng/ml; #542 50 uM; #1780 1 uM and 0.2 uM; FIG. 55. How it is done:
Supernatants from 5637 bladder carcinoma cells incubated with chemicals registering as positives in the G-CSF promoter/luciferase High-Throughput assay were assayed for secreted G-CSF protein using the two-antibody sandwich immunoassay (96). The G-CSF Assay kit manufactured by Oncogene Science, Inc. was used and the manufacturer's instructions were followed.
The levels of G-CSF in the cell supernatants were determined by a sandwich-antibody assay as described in Materials and Methods (FIG. 55).

Setting [1] is: 7-hour incubation, serum-free defined media with 20 ng/ml EGF.
The mark [2] stands for this setting: 7-hour incubation, serum-free defined media, absence of EGF.
The mark [3] stands for this setting: 10.5 hours, serum-containing media, 8.3 ng/ml TNF-alpha, 20 ng/ml PMA, 0.5 ng/ml Interleukin-1 beta, or mixtures as labelled.

With `CCCCCCCCCCCCCC(=O)O[C@@H]1[C@@H](C)[C@@]2(O)[C@@H](C=C(CO)C[C@]3(O)C(=O)C(C)=C[C@@H]23)[C@@H]2C(C)(C)[C@]12OC(C)=O` [PMA, phorbo-myristate-acetate, reference compound], the “G-CSF promoter induction, clone G 1002” value in the assay on G-CSF promoter (setting [1]) amounted to 5.6 fold; in the assay with G-CSF promoter (setting [2]) it was 9.3 fold; in the assay on G-CSF promoter (setting [3]), 4.4 fold.
For TNF-alpha, the “G-CSF secretion into media” value in the assay with secreted G-CSF protein is “increased G-CSF secretion”. The “G-CSF promoter induction, clone G 1002” value turned out to be 3 fold in the assay with G-CSF promoter (setting [1]), 4 fold in the assay on G-CSF promoter (setting [2]) and 2 fold in the assay on G-CSF promoter (setting [3]).
